Key:
Format in all cases: cell-based
[1] = test system: Escherichia Coli (EC) CIP 53.126; assay: ASTM E2149 shake flask method, antibacterial log reduction, E. coli; conditions: log(T0/T1h), 1 hour
Protocol: (§1) The antibacterial efficacy was tested following the below Shake Flask protocol:
(§2) • Microbial strains: Staphylococcus aureus (SA) CIP 4.83, Escherichia Coli (EC) CIP 53.126, Pseudomonas Aeruginosa (PA) CIP 82.113 • Culture media: TSA medium-Neutralizing medium (Dey Engley Broth)-Buffered Peptoned water (BPW-F)-Shake flask bottles-Physiological water • Incubator Shake Flask Protocol: ASTM E2149 Shake Flask Method • Inoculum counting: • For each strain, prepare an inoculum at 0.5 Mc Farland (McF). Dilute 1 ml of the inoculum with 9 ml of physiological water. Select 1 ml of the resulting dilution and dilute again with 9 ml of physiological water. Execute 5 dilution steps accordingly so that a 10^−5 dilution is obtained. • Recover 100 microliter of the 10^−5 dilution and inoculate 2 petri dishes. • Add 20 ml of TSA medium. • Incubate at 32+/−0.5° C. during 24 hours • Negative control: • Put 5 ml of SA, EC or PA inoculums into a shake flask. Add 45 ml of pure BPW-F solution. • Dilute twice in neutralizing medium: Recover 1 ml of the pure solution and add 9 ml of the neutralizing medium (=10^−1 and 10^−2 dilution). • Wait 5 minutes and put 100 microliter of the pure solution and the 10^−2 dilution into 2 petri dishes, add 20 ml of TSA medium (T0). • Do the same operation after 1 hour (T1h). • Incubate at 32+/−0.5° C. during 24 hours • Sample testing: • Prepare a solution at a specified concentration (see data tables for actual concentrations as 100% active—final volume 50 ml). For example, for a 50% (V/V), dilute 25 ml of product with 20 ml of BPW-F and 5 ml of the inoculums (SA, EC or PA) at 0.5 McF. • Dilute twice in neutralizing medium: Recover 1 ml of the pure solution and add 9 ml of the neutralizing medium (=10^−1 and 10^−2 dilution). • Wait 5 minutes and put 100 microliter of the pure solution and the 10^−2 dilution into 2 petri dishes, add 20 ml of TSA medium (T0). • Do the same operation after 1 hour (T1h). • Incubate at 32+/−0.5° C. during 24 hours • Calculation of log reduction: • The log reduction is calculated as log(T0/T1h)

[2] = test system: Staphylococcus aureus (SA) CIP 4.83; assay: ASTM E2149 shake flask method, antibacterial log reduction, St. aureus; conditions: log(T0/T1h), 1 hour
Protocol: as §1, §2

[3] = test system: Pseudomonas Aeruginosa (PA) CIP 82.113; assay: ASTM E2149 shake flask method, antibacterial log reduction, Ps. aeruginosa; conditions: Ps Aeroginosa; tested active concentration 10%; log(T0/T1h), 1 hour
Protocol: as §1, §2

[4] = tested active concentration 0.1%
[5] = St. Aureus, tested active concentration 0.1%

| Compound | Log reduction (tested active concentration) [1, 4] | Log reduction (tested active concentration) [2, 5] | Log reduction (tested active concentration) [3] | Log reduction (tested active concentration) ([1]; tested active concentration 1%) | Log reduction (tested active concentration) ([2]; St Aureus, tested active concentration 1%) |
| --- | --- | --- | --- | --- | --- |
| linear C12-14 alkyl dimethyl amine oxide [Linear AO] | 0.41 (0.1%) | 0.73 (0.1%) | 2.10 (10%) |  |  |
| O=C([O-])[O-].[Zn+2] [Zn2+, zinc carbonate] | 0.17 (0.1%) | 0.18 (0.1%) | 0.27 (10%) |  |  |
| CCCCCCCCCCCC(=O)NCCC[N+](C)(C)[O-] [CAP AO, cocoamidopropyl dimethyl amine oxide] |  |  | 1.3 (10%) | 0.37 (1%) | 0.88 (1%) |
| methyl branched dimethyl amine oxide [Shell type 1 Branched AO ( N terminal)] |  | 4.06 (0.1%) | 3.98 (10%) |  |  |

Reference: US8470755B1, “Liquid cleaning and disinfecting compositions comprising a zinc inorganic salt” (The Procter & Gamble Company, priority 2012, dated 2013)
